Laboratory results as given in patent US20260092057A1, “BCL-XL/BCL-2 DEGRADERS AND USES THEREOF” (Kymera Therapeutics, Inc., priority 2022, published 2026).
Read-outs that look alike come from different tables or passages of the source.

Experiments:
MOLT-4 cells = test: CTG (CellTiter-Glo) cell viability assay, MOLT-4; type: cell-based; conditions: MOLT-4, 3 day, read-out: CTG Cell Viability Assay - MOLT-4 3 day: Average external-IC50
Description: (§1) Compound-mediated viability effect on MOLT-4 and Caki-2 was quantitatively determined using the CellTiter-Glo® Luminescent Cell Viability Assay kit from Promega (Catalog number G7570) following manufacturer's recommended procedures. Briefly, MOLT-4 and Caki-2 cells were seeded into 384 well plates (Grenier Bio-One, Catalog number 781080) with a density of 10,000 cells per well. Compounds were then added to the assay plate with final top concentration of 10 µM and 1:3 dilution series with total of 9 doses. The final DMSO concentration is normalized to 0.2%. The assay plates were incubated at 37° C. for 3 days under 5% CO2. Then the assay plate was equilibrated at room temperature for 10 minutes. To determine cell viability, 30 uL CellTiter Glo reagent was added to each well and the assay plate was centrifuged at 1000 rpm for 30 second, incubated at room temperature for 10 min, and analyzed by detecting the luminescence using a multimode plate reader (EnVision 2105, PerkinElmer). The data was then analyzed by software Prism 7.0 from GraphPad and the dose response curves are fit using a three-parameter logistic equation to calculate IC50.
(§2) The letter codes for MOLT-4 IC50 include: A (<0.1 μM); B (0.1-1.0 μM); C (>1.0-3.0 μM); and D (>3.0 μM). The letter codes for Caki-2 IC50 include: A (<5 μM); B (5-10 μM); C (>10-30.0 μM); and D (>30.0 μM).

Caki-2 cells = test: CTG (CellTiter-Glo) cell viability assay, Caki-2; type: cell-based; conditions: Caki-2, 3-day, read-out: CTG Chempartner/PHA- Caki-2 3-day: Average external-IC50
Description: as §1, §2

SMILES | IC50 (MOLT-4 cells; Homo sapiens, MOLT-4, 72 h) [nM] | IC50 (MOLT-4 cells) [nM] | IC50 (Caki-2 cells; Homo sapiens, CAKI-2, 72 h) [nM] | IC50 (Caki-2 cells) [nM]
Cc1ncsc1-c1ccc([C@H](C)NC(=O)[C@@H]2C[C@@H](O)CN2C(=O)[C@@H](NC(=O)CCCCCN(CCO)CCCNc2ccc(S(=O)(=O)NC(=O)c3ccc(N4CCN(CC5=C(c6ccc(Cl)cc6)CC(C)(C)CC5)CC4)cc3Oc3cnc4[nH]ccc4c3)cc2S(=O)(=O)C(F)(F)F)C(C)(C)C)cc1 [I-100] | > 3000 |  | > 30000 | 
Cc1ncsc1-c1ccc([C@H](C)NC(=O)[C@@H]2C[C@@H](O)CN2C(=O)[C@@H](NC(=O)CCCCCC(=O)NCCCNc2ccc(S(=O)(=O)NC(=O)c3ccc(N4CCN(Cc5ccccc5-c5ccc(Cl)cc5)CC4)cc3Oc3cnc4[nH]ccc4c3)cc2S(=O)(=O)C(F)(F)F)C(C)(C)C)cc1 [I-62] | > 3000 |  | > 30000 | 
Cc1ncsc1-c1ccc([C@H](C)NC(=O)[C@@H]2C[C@@H](O)CN2C(=O)[C@@H](NC(=O)CCCCCC(=O)N2CCN(C[C@]3(C)CCC(c4ccc(Cl)cc4)=C(CN4CCN(c5ccc(C(=O)NS(=O)(=O)c6ccc(NCCCN7CCOCC7)c(S(=O)(=O)C(F)(F)F)c6)c(Oc6cnc7[nH]ccc7c6)c5)CC4)C3)CC2)C(C)(C)C)cc1 [I-132] |  | 100 to 1000 |  | > 30000
Cc1ncsc1-c1ccc([C@H](C)NC(=O)[C@@H]2C[C@@H](O)CN2C(=O)[C@@H](NC(=O)CNCCCNc2ccc(S(=O)(=O)NC(=O)c3ccc(N4CCN(CC5=C(c6ccc(Cl)cc6)CC(C)(C)CC5)CC4)cc3Oc3cnc4[nH]ccc4c3)cc2S(=O)(=O)C(F)(F)F)C(C)(C)C)cc1 [I-115] | > 3000 |  | > 30000 | 
Cc1ncsc1-c1ccc([C@H](C)NC(=O)[C@@H]2C[C@@H](O)CN2C(=O)[C@@H](NC(=O)CCCCCN(C)CCCNc2ccc(S(=O)(=O)NC(=O)c3ccc(N4CCC([C@@H](O)c5ccccc5-c5ccc(Cl)cc5)CC4)cc3Oc3cnc4[nH]ccc4c3)cc2S(=O)(=O)C(F)(F)F)C(C)(C)C)cc1 [I-66] | > 3000 |  | > 30000 | 
Cc1ncsc1-c1ccc(CNC(=O)[C@@H]2C[C@@H](O)CN2C(=O)[C@@H](NC(=O)C2(F)CC2)C(C)(C)C)c(OCCCCCCC(=O)N2CCN(Cc3ccc(-c4ccc(Cl)cc4)c(CN4CCN(c5ccc(C(=O)NS(=O)(=O)c6ccc(N[C@H](CCN(C)C)CSc7ccccc7)c([N+](=O)[O-])c6)cc5)CC4)c3)CC2)c1 [I-18] | > 3000 |  | > 30000 | 
Cc1ncsc1-c1ccc([C@H](C)NC(=O)[C@@H]2C[C@@H](O)CN2C(=O)[C@@H](NC(=O)CCCCCC(=O)N(C)CCCNc2ccc(S(=O)(=O)NC(=O)c3ccc(N4CCC([C@@H](O)c5ccccc5-c5ccc(Cl)cc5)CC4)cc3Oc3cnc4[nH]ccc4c3)cc2S(=O)(=O)C(F)(F)F)C(C)(C)C)cc1 [I-68] | > 3000 |  | > 30000 | 
Cc1ncsc1-c1ccc([C@H](C)NC(=O)[C@@H]2C[C@@H](O)CN2C(=O)[C@@H](NC(=O)C2CCN(c3ccc(N(C)CCCNc4ccc(S(=O)(=O)NC(=O)c5ccc(N6CCN(CC7=C(c8ccc(Cl)cc8)CC(C)(C)CC7)CC6)cc5Oc5cnc6[nH]ccc6c5)cc4S(=O)(=O)C(F)(F)F)cc3)CC2)C(C)(C)C)cc1 [I-89] | > 3000 |  | > 30000 | 
Cc1ncsc1-c1ccc([C@H](C)NC(=O)[C@@H]2C[C@@H](O)CN2C(=O)[C@@H](NC(=O)C2CCN(c3ccc(S(=O)(=O)NC(=O)c4ccc(-c5ccc(Cl)cc5)c(CN5CCN(c6ccc(C(=O)NS(=O)(=O)c7ccc(N[C@H](CCN(C)C)CSc8ccccc8)c([N+](=O)[O-])c7)cc6)CC5)c4)cc3)CC2)C(C)(C)C)cc1 [I-15] | > 3000 |  | > 30000 | 
Cc1ncsc1-c1ccc([C@H](C)NC(=O)[C@@H]2C[C@@H](O)CN2C(=O)[C@@H](NC(=O)C#CC2CCN(CCCNc3ccc(S(=O)(=O)NC(=O)c4ccc(N5CCC([C@@H](O)c6ccccc6-c6ccc(Cl)cc6)CC5)cc4Oc4cnc5[nH]ccc5c4)cc3S(=O)(=O)C(F)(F)F)CC2)C(C)(C)C)cc1 [I-117] | > 3000 |  | > 30000 | 
Cc1ncsc1-c1ccc([C@H](C)NC(=O)[C@@H]2C[C@@H](O)CN2C(=O)[C@@H](NC(=O)CCCCCN(C)CCNc2ccc(S(=O)(=O)NC(=O)c3ccc(N4CCN(CC5=C(c6ccc(Cl)cc6)CC(C)(C)CC5)CC4)cc3Oc3cnc4[nH]ccc4c3)cc2S(=O)(=O)C(F)(F)F)C(C)(C)C)cc1 [I-77] | 100 to 1000 |  | 10000 to 30000 | 
Cc1ncsc1-c1ccc([C@H](C)NC(=O)[C@@H]2C[C@@H](O)CN2C(=O)[C@@H](NC(=O)CCCCCCN2CCN(CCCNc3ccc(S(=O)(=O)NC(=O)c4ccc(N5CCN(CC6=C(c7ccc(Cl)cc7)CC(C)(C)CC6)CC5)cc4Oc4cnc5[nH]ccc5c4)cc3S(=O)(=O)C(F)(F)F)CC2)C(C)(C)C)cc1 [I-137] | < 100 |  | > 30000 | 
C#Cc1ccc(C(CO)NC(=O)[C@@H]2C[C@@H](O)CN2C(=O)[C@@H](NC(=O)CCCCCCC(=O)N2CCN(C[C@]3(C)CCC(c4ccc(Cl)cc4)=C(CN4CCN(c5ccc(C(=O)NS(=O)(=O)c6ccc(NCCCN7CCOCC7)c(S(=O)(=O)C(F)(F)F)c6)c(Oc6cnc7[nH]ccc7c6)c5)CC4)C3)CC2)C(C)(C)C)cc1 (stereo partly shown) [I-139] | < 100 |  | > 30000 | 

Second part, led by results:

IC50 (MOLT-4 cells; Homo sapiens, MOLT-4, 72 h) [nM] | IC50 (MOLT-4 cells) [nM] | SMILES | IC50 (Caki-2 cells; Homo sapiens, CAKI-2, 72 h) [nM] | IC50 (Caki-2 cells) [nM]
1000 to 3000 |  | Cc1ncsc1-c1ccc([C@H](C)NC(=O)[C@@H]2C[C@@H](O)CN2C(=O)[C@@H](NC(=O)CCCCCC(=O)N2CCN(CC[C@H](CSc3ccccc3)Nc3ccc(S(=O)(=O)NC(=O)c4ccc(N5CCC6(CC5)CC(N5CCC[C@H]5c5ccccc5C5CC5)C6)cc4)cc3S(=O)(=O)C(F)(F)F)CC2)C(C)(C)C)cc1 [I-88] | > 30000 | 
> 3000 |  | Cc1ncsc1-c1ccc([C@H](C)NC(=O)[C@@H]2C[C@@H](O)CN2C(=O)[C@@H](NC(=O)CCCCCC(=O)NCC[C@H](CSc2ccccc2)Nc2ccc(S(=O)(=O)NC(=O)c3ccc(N4CCC([C@H](O)c5ccccc5-c5ccc(Cl)cc5)CC4)cc3)cc2S(=O)(=O)C(F)(F)F)C(C)(C)C)cc1 [I-70] | > 30000 | 
> 3000 |  | Cc1ncsc1-c1ccc([C@H](C)NC(=O)[C@@H]2C[C@@H](O)CN2C(=O)[C@@H](NC(=O)CCCCCC(=O)N2CCN(CC[C@H](CSc3ccccc3)Nc3ccc(S(=O)(=O)NC(=O)c4ccc(N5CC6(CCC6)C5)cc4)cc3S(=O)(=O)C(F)(F)F)CC2)C(C)(C)C)cc1 [I-45] | > 30000 | 
> 3000 |  | Cc1ncsc1-c1ccc([C@H](C)NC(=O)[C@@H]2C[C@@H](O)CN2C(=O)[C@@H](NC(=O)CCCC(=O)N2CCN(CCCNc3ccc(S(=O)(=O)NC(=O)c4ccc(N5CCN(CC6=C(c7ccc(Cl)cc7)CC(C)(C)CC6)CC5)cc4Oc4cnc5[nH]ccc5c4)cc3S(=O)(=O)C(F)(F)F)CC2)C(C)(C)C)cc1 [I-78] | > 30000 | 
> 3000 |  | Cc1ncsc1-c1ccc([C@H](C)NC(=O)[C@@H]2C[C@@H](O)CN2C(=O)[C@@H](NC(=O)CCCCCC(=O)N2CCN(CC[C@H](CSc3ccccc3)Nc3ccc(S(=O)(=O)NC(=O)c4ccc(N5CCN(C)CC5)cc4)cc3S(=O)(=O)C(F)(F)F)CC2)C(C)(C)C)cc1 [I-53] | > 30000 | 
> 3000 |  | Cc1ncsc1-c1ccc([C@H](C)NC(=O)[C@@H]2C[C@@H](O)CN2C(=O)[C@@H](NC(=O)CCCCCC(=O)N2CCN(CC[C@H](CSc3ccccc3)Nc3ccc(S(=O)(=O)NC(=O)c4ccc(N5CC[C@@H](N(C)C)C5)cc4)cc3S(=O)(=O)C(F)(F)F)CC2)C(C)(C)C)cc1 [I-46] | > 30000 | 
> 3000 |  | Cc1ncsc1-c1ccc([C@H](C)NC(=O)[C@@H]2C[C@@H](O)CN2C(=O)[C@@H](NC(=O)CCCCCC(=O)N2CCN(Cc3ccc(-c4ccc(Cl)cc4)c([C@H](O)C4CCN(c5ccc(C(=O)NS(=O)(=O)c6ccc(N[C@H](CCN(C)CCO)CSc7ccccc7)c(S(=O)(=O)C(F)(F)F)c6)cc5)CC4)c3)CC2)C(C)(C)C)cc1 [I-30] | > 30000 | 
> 3000 |  | Cc1ncsc1-c1ccc([C@H](C)NC(=O)[C@@H]2C[C@@H](O)CN2C(=O)[C@@H](NC(=O)CCCCCC(=O)N2CCN(CC[C@H](CSc3ccccc3)Nc3ccc(S(=O)(=O)NC(=O)c4ccc(N5CCC(N(C)C)CC5)cc4)cc3S(=O)(=O)C(F)(F)F)CC2)C(C)(C)C)cc1 [I-48] | > 30000 | 
 | 1000 to 3000 | Cc1ncsc1-c1ccc([C@H](C)NC(=O)[C@@H]2C[C@@H](O)CN2C(=O)[C@@H](NC(=O)CCCCCC(=O)N2CCN(C[C@]3(C)CCC(c4ccc(Cl)cc4)=C(CN4CCN(c5ccc(C(=O)NS(=O)(=O)c6ccc(NCCCN7CCOCC7)c(S(=O)(=O)C(F)(F)F)c6)c(Oc6cnc7[nH]ccc7c6)c5)CC4)C3)CC2)C(C)(C)C)cc1 [I-130] | > 30000 | 
> 3000 |  | Cc1ncsc1-c1ccc([C@H](C)NC(=O)[C@@H]2C[C@@H](O)CN2C(=O)[C@@H](NC(=O)CCCCCC(=O)N2CCN(c3ccc(-c4ccc(Cl)cc4)c([C@@H](O)C4CCN(c5ccc(C(=O)NS(=O)(=O)c6ccc(N[C@H](CCN(C)CCO)CSc7ccccc7)c(S(=O)(=O)C(F)(F)F)c6)cc5)CC4)c3)CC2)C(C)(C)C)cc1 (single isomer, unassigned) [I-114] | > 30000 | 
